Source: patent EP3928779A1 (Chugai Seiyaku Kabushiki Kaisha, priority 2014, dated 2016)

What follows are molecules tested on rat small-intestinal brush border membrane vesicles (assay: Inhibitory effect on 33PO4 uptake into rat small-intestinal brush border membrane vesicles (rapid filtration method)). Conditions: 33PO4 uptake into rat small-intestinal BBMVs; test compound 1 µM; reacted for 60 seconds.
Type: biochemical
Outline: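 Uptake of ^33PO4 was measured by rapid filtration and liquid scintillation counting of filter-retained vesicles, after quenching with ice-cold 110 mM NaCl/1 mM KH2PO4/10 mM HEPES pH 7.5. Vesicles were brush border membranes from the upper small intestine of female Wistar rats aged 4–5 weeks.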

Row | Molecule | Rate of uptake inhibition (%) (1 µM)
1 | C[C@@]12CCCN1N(Cc1ccc(OCCN3CCOCC3)c(F)c1F)C(=O)C(C(=O)Nc1ccc(Cl)cc1-c1cc(C(F)(F)F)ncn1)=C2O.Cl [Example 107] | 54
2 | CC(C)(C)[C@H]1C(O)=C(C(=O)Nc2ccc(Cl)cc2-c2ccc(C(F)(F)F)nc2)C(=O)N(Cc2cccc(F)c2F)N1CC(F)(F)F [Example 247] | 51
3 | CC(C)[C@@H]1C(O)=C(C(=O)Nc2ccc(C(F)(F)F)cc2-c2cc(C(F)(F)F)ncn2)C(=O)N(Cc2cccc(F)c2F)N1C [Example 249] | 50
4 | COC(=O)CN(C)CCOc1ccc(CN2C(=O)C(C(=O)Nc3ccc(C(F)(F)F)cc3-c3cc(C(F)(F)F)ncn3)=C(O)C3(CCC3)N2C)c(F)c1F [Example 346] | 42
5 | CN1N(Cc2ccc(OCCN3CC(F)(F)C3)c(F)c2F)C(=O)C(C(=O)Nc2ccc(C(F)(F)F)cc2-c2cc(C(F)(F)F)ncn2)=C(O)C12CCCC2 [Example 369] | 43
6 | C[C@]12CCCN1N(Cc1cccc(F)c1F)C(=O)C(C(=O)Nc1ccc(C(F)(F)F)cc1-c1cnc(Cl)c(C#N)c1)=C2O [Example 68, (4aR)-N-[2-(6-Chloro-5-cyanopyridin-3-yl)-4-(trifluoromethyl)phenyl]-1-[(2,3-difluorophenyl)methyl]-4-hydroxy-4a-methyl-2-oxo-6,7-dihydro-5H-pyrrolo[1,2-b]pyridazine-3-carboxamide] | 84
7 | CC(C)[C@H]1C(O)=C(C(=O)Nc2ccc(C(F)(F)F)cc2-c2cc(C(F)(F)F)ncn2)C(=O)N(Cc2cccc(F)c2F)N1C [Example 252] | 53
8 | CN1N(Cc2cccc(F)c2F)C(=O)C(C(=O)Nc2ccc(Cl)cc2-c2cc(C(F)(F)F)ncn2)=C(O)C12CCC2 [Example 255] | 80
9 | CN1[C@@H](C(C)(C)C)C(O)=C(C(=O)Nc2ccc(C(F)(F)F)cc2-c2ccnc(C#N)c2)C(=O)N1Cc1ccc(OCCN2CCOCC2)c(F)c1F [Example 271] | 60
10 | CN1N(Cc2ccc(OCCN3CCN(S(C)(=O)=O)CC3)c(F)c2F)C(=O)C(C(=O)Nc2ccc(C(F)(F)F)cc2-c2cc(C(F)(F)F)ncn2)=C(O)C12CCC2 [Example 363] | 11
11 | Cc1cccc(CN2C(=O)C(C(=O)Nc3ccc(C(F)(F)F)cc3-c3cc(C(F)(F)F)ncn3)=C(O)[C@@]3(C)CCCN23)c1F [Example 215] | 86
12 | C[C@]12CCCN1N(Cc1ccc(F)cc1F)C(=O)C(C(=O)Nc1cc(F)c(Br)c(F)c1)=C2O [Example 192] | 88
13 | CSc1ccc(-c2nc(C(F)(F)F)ccc2NC(=O)C2=C(O)[C@@]3(C)CCCN3N(Cc3cccc(F)c3F)C2=O)cn1 [Example 105] | 72
14 | CN1N(Cc2ccc(OCCN(CCO)CCO)c(F)c2F)C(=O)C(C(=O)Nc2ccc(C(F)(F)F)cc2-c2cc(C(F)(F)F)ncn2)=C(O)C12CCC2 [Example 351] | 22
15 | COCCN(C)CCOc1c(-c2cccnc2)cc(CN2C(=O)C(C(=O)Nc3ccc(C(F)(F)F)cc3-c3cc(C(F)(F)F)ncn3)=C(O)C3(CCCC3)N2C)c(F)c1F [Example 440, 9-[[2,3-Difluoro-4-[2-[2-methoxyethyl(methyl)amino]ethoxy]-5-(3-pyridinyl)phenyl]methyl]-6-hydroxy-10-methyl-8-oxo-N-[4-(trifluoromethyl)-2-[6-(trifluoromethyl)pyrimidin-4-yl]phenyl]-9,10-diazaspiro[4.5]dec-6-ene-7-carboxamide] | 28
16 | CN1N(Cc2ccc(OCCCOCCO)c(F)c2F)C(=O)C(C(=O)Nc2ccc(C(F)(F)F)cc2-c2cc(C(F)(F)F)ncn2)=C(O)C12CCCC2 [Example 395] | 39
17 | C[C@]12CCCN1N(Cc1cccc(F)c1F)C(=O)C(C(=O)Nc1ccc(C(F)(F)F)cc1-c1ncnc(C#N)c1Cl)=C2O [Example 23] | 84
18 | CN1N(Cc2ccc(OCCCC(=O)O)c(F)c2F)C(=O)C(C(=O)Nc2ccc(C(F)(F)F)cc2-c2cc(C(F)(F)F)ncn2)=C(O)C12CCCC2 [Example 332, 4-[2,3-Difluoro-4-[[10-hydroxy-6-methyl-8-oxo-9-[[4-(trifluoromethyl)-2-[6-(trifluoromethyl)pyrimidin-4-yl]phenyl]carbamoyl]-6,7-diazaspiro[4.5]dec-9-en-7-yl]methyl]phenoxy]butanoate] | 3
19 | CN1N(Cc2cccc(F)c2F)C(=O)C(C(=O)Nc2ccc(C(F)(F)F)cc2-c2cncc(C(F)(F)F)c2)=C(O)C1(C)C [Example 305] | 66
20 | COCCN(C)CCN(c1ccc(CN2C(=O)C(C(=O)Nc3ccc(C(F)(F)F)cc3-c3cc(C(F)(F)F)ncn3)=C(O)C3(CCCC3)N2C)c(F)c1F)C(C)C [Example 445] | 29
21 | 1-[(3-Fluorophenyl)methyl]-4-hydroxy-4a-methyl-N-[5-methyl-2-(trifluoromethyl)furan-3-yl]-2-oxo-5,6,7,8-tetrahydropyrido[1,2-b]pyridazine-3-carboxamide [Example 18] | 12
22 | COC(=O)COc1ccc(CN2C(=O)C(C(=O)Nc3ccc(C(F)(F)F)cc3-c3ccc(C(F)(F)F)nc3)=C(O)[C@@]3(C)CCCN23)c(F)c1F [Example 150, Methyl 2-[4-[[(4aR)-4-Hydroxy-4a-methyl-2-oxo-3-[[4-(trifluoromethyl)-2-[6-(trifluoromethyl)pyridin-3-yl]phenyl]carbamoy]-6,7-dihydro-5H-pyrrolor[1,2-b]pyridazin-1-yl]methyl]-2,3-difluorophenoxy] acetate] | 87
23 | (4aS,5S,8R)-1-(3-Fluorobenzyl)-4-hydroxy-N-(5-methyl-2-(trifluoromethyl)furan-3-yl)-2-oxo-2,4a,5,6,7,8-hexahydro-1H-5,8-methanopyrido[1,2-b]pyridazine-3-carboxamide [Example 20] | 21
24 | CN1N(Cc2cccc(F)c2F)C(=O)C(C(=O)Nc2ccc(C(F)(F)F)cc2-c2cc(C(F)(F)F)ncn2)=C(O)C12CCC2 [Example 300] | 74
25 | CCC1(CC)C(O)=C(C(=O)Nc2ccc(C(F)(F)F)cc2-c2cc(C(F)(F)F)ncn2)C(=O)N(Cc2ccc(OCCN3CCOCC3)c(F)c2F)N1C [Example 291] | 47
26 | C[C@]12CCCN1N(Cc1cccc(F)c1F)C(=O)C(C(=O)Nc1ccc(Cl)cc1F)=C2O [Example 76] | 77
27 | COc1c(C#N)ncnc1-c1cc(C(F)(F)F)ccc1NC(=O)C1=C(O)[C@@]2(C)CCCN2N(Cc2cccc(F)c2F)C1=O [Example 25] | 82
28 | CN1N(Cc2ccc(OCCN3CCOCC3)c(F)c2F)C(=O)C(C(=O)Nc2ccc(Cl)cc2-c2ccc(C(F)(F)F)nc2)=C(O)C12CCCC2 [Example 288] | 61
29 | C[C@]12CCCN1N(Cc1ccc(F)c(F)c1)C(=O)C(C(=O)Nc1ccc(C(F)(F)F)cc1-c1ccc(C(F)(F)F)nc1)=C2O [Example 170] | 73
